pIC50: −log10 of the molar value. Counter-ions that a name gives are not always drawn. Like-named read-outs stand apart in the source and are kept apart here.
Assays:
[1] = molecular target: Kv11.1 (hERG) ion channel (Homo sapiens (Human), UniProt Q12809); assay type: cell-based; settings: ratio of hERG Ki (patch clamp) to pERK IC50 in KYSE520
Protocol: Inhibition of the ion channel hErg (or Kv11.1) current causes QT interval prolongation resulting in potentially fatal ventricular tachyarrhythmia called Torsade de Pointes.
hERG ion channel activity was assessed using a patch clamp technique in stable Kv11.1 (hERG) transfected human embryonic kidney cell line (HEK293). Whole cell recordings were carried out with an automated patch clamp device Patchliner™ from Nanion Technologies, Munich following manufacturer recommendation. Different concentrations of the test compound or reference, quinidine, were applied to whole cells suspension and current was measured using a pulse pattern with fixed amplitudes.

[2] = molecular target: Full length SHP2 protein (Recombinant Human SHP-2) (Homo sapiens, UniProt Q06124); experiment: SHP2 biochemical assay (DiFMUP substrate, activating peptide IRSI_2pY); settings: DiFMUP substrate, activating peptide IRSI_2pY, 60 min at RT; read-out: SHP-2 Biochemical assay IC50
Protocol: The inhibition of SHP2 by compounds of the invention was monitored using the surrogate substrate DiFMUP after protein activation by a peptide bearing two appropriately spaced phosphotyrosine. […] The generation of the DiFMU product by activated SHP2 was monitored through Fluorescence measurement with a PerkinElmer Envision reader.
The inhibitor dose response curves were analyzed with Genedata Screener.

[3] = system: pERK level in KYSE520 cells; experiment: p-Erk cellular assay in KYSE520 (Mesoscale); assay type: cell-based; settings: 2 h incubation, read-out: pERK1/2 in KYSE520 IC50
Protocol: (§1) p-Erk Cellular Assay in MDA-MB-468 and KYSE520:
(§2) The effect of SHP2 inhibitors on pERK level was assessed using phospho-specific antibody using Mesoscale quantification platform. For measuring change in pERK levels using mesoscale, 30,000 cells of MDA MB468 and KYSE520 cells were plated in 96-well tissue culture treated plate in 175 ul volume of media. After an overnight incubation at 37° C., various SHP2 inhibitors were added in different concentration to each well maintaining duplicate wells across plates and incubated with compounds for 2 h at 37° C. followed by a wash with ice cold PBS buffer. The cells were then lysed in lysis buffer and processed and analyzed for p-ERK/ERK as per manufacturer's instructions (Mesoscale discovery, cat No. K15107D-3).

[4] = system: pERK level in MDA-MB-468 cells; experiment: p-Erk cellular assay in MDA-MB-468 (Mesoscale); assay type: cell-based; settings: 2 h incubation, read-out: pERK1/2 in MDA-MB-468 IC50
Protocol: as §1, §2

[5] = Pharmacokinetics in female CD1 mice (oral / intravenous); assay type: in vivo; settings: mouse PK; for clearance / Vd: female, CD1, plasma, intravenous; for Vd: read-out: Vd ss
Protocol: Female CD1 mice (N=3) received a single oral (gavage) or a single intravenous (bolus) injection of compound. […] Consecutive blood samples were taken sub-lingually under isofluorane inhalation from animals after 0.083 (IV), 0.25, 0.5, 1, 2, 4, 6 and 24 h and were further processed to obtain plasma. Samples were protein precipitated and analyzed by LC/MS/MS.

Full length SHP2 protein (Recombinant Human SHP-2), sequence (Q06124 2-593 limits assumed): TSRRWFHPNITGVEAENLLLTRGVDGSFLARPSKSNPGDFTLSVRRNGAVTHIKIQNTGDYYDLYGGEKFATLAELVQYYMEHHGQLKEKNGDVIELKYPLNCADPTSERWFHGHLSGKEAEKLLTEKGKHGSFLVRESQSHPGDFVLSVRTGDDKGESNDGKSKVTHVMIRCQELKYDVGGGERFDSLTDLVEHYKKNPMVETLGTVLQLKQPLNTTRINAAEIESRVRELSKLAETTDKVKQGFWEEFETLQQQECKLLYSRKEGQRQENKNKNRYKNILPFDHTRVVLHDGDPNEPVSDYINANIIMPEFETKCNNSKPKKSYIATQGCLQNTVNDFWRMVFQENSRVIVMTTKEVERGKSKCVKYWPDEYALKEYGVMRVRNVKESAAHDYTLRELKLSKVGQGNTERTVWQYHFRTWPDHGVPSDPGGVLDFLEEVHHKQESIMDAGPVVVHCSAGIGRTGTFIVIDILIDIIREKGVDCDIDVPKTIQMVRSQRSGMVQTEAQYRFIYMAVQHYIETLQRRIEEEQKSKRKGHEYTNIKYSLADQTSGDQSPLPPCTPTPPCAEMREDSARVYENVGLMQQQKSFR
Kv11.1 (hERG) ion channel, sequence (Q12809 whole entry): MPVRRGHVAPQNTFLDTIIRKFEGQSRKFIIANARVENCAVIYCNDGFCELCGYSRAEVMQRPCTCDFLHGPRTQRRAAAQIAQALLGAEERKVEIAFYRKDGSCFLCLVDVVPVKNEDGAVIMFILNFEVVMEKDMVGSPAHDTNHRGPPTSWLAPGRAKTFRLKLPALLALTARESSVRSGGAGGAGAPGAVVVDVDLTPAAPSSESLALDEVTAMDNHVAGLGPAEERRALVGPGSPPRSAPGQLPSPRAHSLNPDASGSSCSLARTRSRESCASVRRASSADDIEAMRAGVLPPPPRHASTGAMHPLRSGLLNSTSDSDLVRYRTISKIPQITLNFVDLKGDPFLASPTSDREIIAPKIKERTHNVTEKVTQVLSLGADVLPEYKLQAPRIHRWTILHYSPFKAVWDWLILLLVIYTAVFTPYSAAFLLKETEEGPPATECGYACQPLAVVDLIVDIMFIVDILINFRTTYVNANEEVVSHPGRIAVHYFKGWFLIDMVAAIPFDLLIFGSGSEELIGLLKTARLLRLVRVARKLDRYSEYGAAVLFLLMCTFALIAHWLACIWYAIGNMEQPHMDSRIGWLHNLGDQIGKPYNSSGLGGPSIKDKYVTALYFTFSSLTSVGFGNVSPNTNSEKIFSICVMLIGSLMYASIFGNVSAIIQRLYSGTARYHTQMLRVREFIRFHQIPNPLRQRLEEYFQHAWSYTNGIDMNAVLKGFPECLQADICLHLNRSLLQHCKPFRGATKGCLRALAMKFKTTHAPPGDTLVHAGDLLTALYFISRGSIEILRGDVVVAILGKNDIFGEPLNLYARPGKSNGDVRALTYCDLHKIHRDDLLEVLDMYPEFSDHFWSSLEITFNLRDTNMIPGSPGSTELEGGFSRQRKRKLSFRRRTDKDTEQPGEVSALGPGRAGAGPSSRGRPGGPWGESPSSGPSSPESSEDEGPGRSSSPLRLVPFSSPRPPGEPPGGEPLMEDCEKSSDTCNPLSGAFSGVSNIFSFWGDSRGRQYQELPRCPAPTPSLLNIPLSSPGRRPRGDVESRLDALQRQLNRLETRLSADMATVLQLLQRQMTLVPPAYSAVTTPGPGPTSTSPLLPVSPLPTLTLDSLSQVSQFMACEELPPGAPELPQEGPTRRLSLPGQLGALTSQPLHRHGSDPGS

Row | Compound | pIC50 [2] | pIC50 ([3]; Homo sapiens, KYSE-520, 2 h) | pIC50 ([4]; Homo sapiens, MDA-MB-468, 2 h) | further results
1 | Cc1nc(N2CCC3(CC2)Cc2ccccc2[C@H]3N)nc(C(N)=O)c1-c1cccc(Cl)c1Cl (atropisomer, axis not shown; (M)) [Compound 119, (M)-2-[(1S)-1-amino-1,3-dihydrospiro[indene-2,4′-piperidin]-1′-yl]-5-(2,3-dichlorophenyl)-6-methylpyrimidine-4-carboxamide] |  |  |  | Split between hErg and cell activity Ki(patch Clamp)/IC50 (KYSE) [1]: 97
2 | CC1(N)CCN(c2nc(N)c(-c3cccc(Cl)c3Cl)c(C(N)=O)n2)CC1 (single isomer, unassigned) [Compound 27, (4P)-6-Amino-2-(4-amino-4-methyl-piperidin-1-yl)-5-(2,3-dichloro-phenyl)-pyrimidine-4-carboxylic Acid Amide] | 7.09 | 5.83 | 6.47 | clearance [5]: 37.3 mL/min/kg; Vd [5]: 8.7 L/kg; Clearance as compared to SHP-099 (in words) [5]: lower clearance; Exposure as compared to SHP-099 (in words) [5]: higher exposure
3 | C[C@@]1(N)CCCN(c2nc(N)c(-c3cccc(Cl)c3Cl)c(C(N)=O)n2)CC1 (atropisomer, axis not shown; (P)) [Compound 109, (5P)-6-amino-2-[(4R)-4-amino-4-methylazepan-1-yl]-5-(2,3-dichlorophenyl)-pyrimidine-4-carboxamide] | 7.15 | 6.33 | 6.38 | 
4 | Cc1nc(N2CCC3(CCC[C@H]3N)CC2)nc(C(N)=O)c1-c1cccc(Cl)c1Cl (single isomer, unassigned) [Compound 114] | 7.35 | 6.55 | 6.50 | 
5 | NC(=O)c1nc(N2CCC3(CC2)CC(F)(F)C[C@H]3N)nc(N)c1-c1cccc(Cl)c1Cl [Compound 8, 6-amino-2-[(1R)-1-amino-3,3-difluoro-8-azaspiro[4.5]decan-8-yl]-5-(2,3-dichlorophenyl)pyrimidine-4-carboxamide] | 6.70 | 5.82 | 5.66 | 
6 | Cc1nc(N2CCC(C)(N)CC2)nc(C(N)=O)c1-c1cccc(Cl)c1Cl [Compound 18, 2-(4-Amino-4-methyl-piperidin-1-yl)-5-(2,3-dichloro-phenyl)-6-methyl-pyrimidine-4-carboxylic Acid Amide] | 6.98 | 5.62 |  | pIC50 [4]: 6.64
7 | CNC(=O)c1nc(N2CCC(C)(N)CC2)nc(N)c1-c1cccc(Cl)c1Cl [Compound 9, 6-Amino-2-(4-amino-4-methyl-piperidin-1-yl)-5-(2,3-dichlorophenyl)-pyrimidine-4-carboxylic Acid Methylamide] | 5.96 | 5.19 | 5.82 | 
8 | NC(=O)c1nc(N2CCC(N)(CO)CC2)nc(N)c1-c1cccc(Cl)c1Cl [Compound 29, 6-amino-2-[4-amino-4-(hydroxymethyl)piperidin-1-yl]-5-(2,3-dichlorophenyl)-pyrimidine-4-carboxamide] | 6.59 | 5.11 | 5.93 | 
9 | Cc1nc(N(C)C2CCC(N)CC2)nc(C(N)=O)c1-c1cccc(Cl)c1Cl (stereo not shown) [Compound 32, 2-[(4-Amino-cyclohexyl)-methyl-amino]-5-(2,3-dichlorophenyl)-6-methyl-pyrimidine-4-carboxylic acid amide] | 6.70 | 5.44 | 6.13 | 
10 | Cc1nc(N2CCC3(CC2)CO[C@@H](C)[C@H]3N)nc(C(N)=O)c1-c1cccc(Cl)c1Cl (single isomer, unassigned) [Compound 95] | 7.66 | 6.31 | 6.30 | clearance [5]: 12.8 mL/min/kg; Vd [5]: 3.99 L/kg; Clearance as compared to SHP-099 (in words) [5]: lower clearance; Exposure as compared to SHP-099 (in words) [5]: higher exposure
11 | NC(=O)c1nc(N2CCC3(CC2)Oc2ccccc2[C@H]3N)nc(N)c1-c1cccc(Cl)c1Cl [Compound 123, 6-amino-2-((R)-3-amino-3H-spiro[benzofuran-2,4′-piperidin]-1′-yl)-5-(2,3-dichlorophenyl)pyrimidine-4-carboxamide di-hydrochloride] | 7.82 | 7.24 |  | Split between hErg and cell activity Ki(patch Clamp)/IC50 (KYSE) [1]: >100
12 | CC1(CN)CCN(c2nc(N)c(-c3cccc(Cl)c3Cl)c(C(N)=O)n2)CC1 [Compound 41, 6-amino-2-[4-(aminomethyl)-4-methylpiperidin-1-yl]-5-(2,3-dichlorophenyl)pyrimidine-4-carboxamide] | 6.51 | 5.52 | 6.04 | 
13 | C[C@@H]1OCC2(CCN(c3nc(N)c(-c4cccc(Cl)c4Cl)c(C(N)=O)n3)CC2)[C@@H]1N [Compound No. 5, 6-amino-2-[(3S,4S)-4-amino-3-methyl-2-oxa-8-azaspiro[4.5]decan-8-yl]-5-(2,3-dichlorophenyl)pyrimidine-4-carboxamide] | 7.14 | 5.96 | 6.00 | Split between hErg and cell activity Ki(patch Clamp)/IC50 (KYSE) [1]: >10
14 | NC[C@]12CCCC[C@H]1CN(c1nc(N)c(-c3cccc(Cl)c3Cl)c(C(N)=O)n1)C2 (single isomer, unassigned) [Compound 101] | 7.12 | 6.41 | 6.35 | 
15 | NC[C@@]12CCC[C@@H]1CN(c1nc(N)c(-c3cccc(Cl)c3Cl)c(C(N)=O)n1)C2 (atropisomer, axis not shown; (P)) [Compound 98, (5P)-2-[(3aR,6aS)-3a-(aminomethyl)octahydrocyclopenta[c]pyrrol-2-yl]-6-amino-5-(2,3-dichlorophenyl)pyrimidine-4-carboxamide] | 7.31 | 5.92 | 6.40 | 
16 | NC(=O)c1nc(N2CCC3(CCC[C@H]3N)CC2)nc(N)c1-c1cccc(Cl)c1Cl [Compound 7, 6-amino-2-[(1R)-1-amino-8-azaspiro[4.5]decan-8-yl]-5-(2,3-dichlorophenyl)pyrimidine-4-carboxamide] | 6.92 | 5.86 | 6.22 | 
17 | NC(=O)c1nc(N2CCCC(N)CC2)nc(N)c1-c1cccc(Cl)c1Cl (stereo not shown) [Compound 49, 6-amino-2-(4-aminoazepan-1-yl)-5-(2,3-dichlorophenyl)-pyrimidine-4-carboxamide] | 6.92 | 5.60 | 6.17 | 
18 | CCCC1(N)CCN(c2nc(N)c(-c3cccc(Cl)c3Cl)c(C(N)=O)n2)CC1 [Compound 53, 6-amino-2-(4-amino-4-propylpiperidin-1-yl)-5-(2,3-dichloro-phenyl)pyrimidine-4-carboxamide] | 6.70 | 5.89 | 6.19 | 
19 | NCC1CN(c2nc(N)c(-c3cccc(Cl)c3Cl)c(C(N)=O)n2)CC12CCC2 (stereo not shown) [Compound 11, 6-amino-2-[8-(aminomethyl)-6-azaspiro[3.4]octan-6-yl]-5-(2,3-dichlorophenyl)pyrimidine-4-carboxamide] | 6.23 | 4.99 | 5.74 | 
20 | Cc1nc(N2CCC(C)(N)CC2)nc(C(N)=O)c1-c1ccnc(Cl)c1Cl [Compound 81, 2-(4-Amino-4-methyl-piperidin-1-yl)-5-(2,3-dichloro-pyridin-4-yl)-6-methyl-pyrimidine-4-carboxylic acid amide] | 6.14 | 4.95 | 5.77 | 
21 | NC(=O)c1nc(N2CCC3(CC2)Cc2scnc2[C@H]3N)nc(N)c1-c1cccc(Cl)c1Cl [Compound 121, 6-amino-2-[(4S)-4-amino-4,6-dihydrospiro[cyclopenta[d][1,3]thiazole-5,4′-piperidin]-1′-yl]-5-(2,3-dichlorophenyl)pyrimidine-4-carboxamide] | 8.70 | 7.80 |  | Split between hErg and cell activity Ki(patch Clamp)/IC50 (KYSE) [1]: >600
22 | CC1(N)CCN(c2nc(Cl)c(-c3cccc(Cl)c3Cl)c(C(N)=O)n2)CC1 (atropisomer, axis not shown; (P)) [Compound 79, (4P)-2-(4-amino-4-methylpiperidin-1-yl)-6-chloro-5-(2,3-dichlorophenyl)-pyrimidine-4-carboxamide] | 7.52 |  |  | pIC50 [3]: 6.08; pIC50 [4]: 6.75
23 | Cc1nc(N2CCCC(C)(N)CC2)nc(C(N)=O)c1-c1cccc(Cl)c1Cl (stereo not shown) [Compound 45, 2-(4-Amino-4-methyl-azepan-1-yl)-5-(2,3-dichloro-phenyl)-6-methyl-pyrimidine-4-carboxylic acid amide] | 6.77 | 5.68 | 6.19 | 
